Assay results reported in patent publication US10231939B2, “Hydroxytyrosol and oleuropein compositions for induction of DNA damage, cell death and LSD1 inhibition” (priority 2012, dated 2019).

Legend:
Assay in all cases: Cell proliferation (Cell Titer-Blue Assay)
Format in all cases: cell-based, human
A549 cells = settings: for EC50: Homo sapiens
Procedure: (§1) Human epidermal squamous carcinoma A431 cells (ATCC No. CRL-1555), human breast adenocarcinoma MCF7 cells (ATCC No. HTB-22) and brain glioblastoma T98G cells (ATCC No. CRL-1690) obtained from the ATCC were grown as monolayers in a Modified Eagle's Medium (a-MEM) supplemented with 2 mmol/L HEPES (pH 7.4; GIBCO-Invitrogen), 10% (v/v) FBS, 2 mmol/L L-glutamine (GIBCO-Invitrogen), and 80 units gentamicin (GIBCO-Invitrogen). Human epithelial lung adenocarcinoma A549 cells (ATCC No. CCL-185), human liver hepatocellular carcinoma and human colorectal carcinoma HT-29 cells (ATCC No. HTB-38) were obtained from the American Type Culture Collection and grown as monolayers in DMEM (Gibco, Invitrogen) supplemented with 10% (v/v) FBS (In Vitro Technologies), antibody/antimycotic containing 100 U/mL Penicillin, 100 μg/mL Streptomycin, 0.25 μg/mL Amphotericin B (Invitrogen, Carlsbad). All adherent cells were maintained in the exponential growth phase in T75 cm^2 vented culture flasks and passaged by 0.05% (v/v) trypsin-EDTA (GIBCO, Invitrogen) before seeding; at 37° C., 5% (v/v) CO2. Cell proliferation was determined using the Cell Titer-Blue Assay kit (Promega, Madison, Wis., USA). Cells were seeded at 10,000 cells per well in black flat bottom 96-well plates (Nalge Nunc, Penfield, N.Y., USA) and treated with serial doses of hydroxytyrosol (0-3200 μM) and oleuropein (0-12800 μM) for 24, 48 and 120 hours at 37° C., 5% (v/v) CO2. Following incubation with the test samples, Cell-Titer Blue reagent (20 μl per 100 μL) was added to each well and mixed gently for 5 sec prior to 4 hr incubation at 37° C. in a humidified atmosphere of 5% CO2. Fluorescence intensity (λex=550 nm and λem=615 nm) was determined using a Perkin Elmer Victor3 multilabel microplate counter (PerkinElmer, Waltham, Mass., USA). Data were expressed as % relative cell viability compared to untreated cells after correction of subtracting the media control fluorescence reading.

HT-29 cells = settings: for EC50: Homo sapiens
Procedure: as §1

A431 cells = settings: for EC50: Homo sapiens, A-431
Procedure: as §1

MCF7 cells = settings: for EC50: Homo sapiens
Procedure: as §1

T98G cells = settings: for EC50: Homo sapiens
Procedure: as §1

HL-60 cells = settings: for EC50: Homo sapiens
Procedure: Human acute myeloid leukemic HL-60 cells (ATCC No. CCL-240) obtained from the ATCC were maintained in Dulbecco's modified Eagle's medium (DMEM, Gibco®, Invitrogen, Carlsbad, USA) supplemented with 20% fetal bovine serum (FBS, In Vitro Technologies, Victoria, Australia), antibody/antimycotic containing 100 U/mL Penicillin, 100 μg/mL Streptomycin, 0.25 μg/mL Amphotericin B (Invitrogen, Carlsbad, Calif., USA) and 1× GlutaMAX (Gibco, Invitrogen). Cells were cultured in suspension in a humidified atmosphere of 5% (v/v) CO2 at 37° C. and were maintained in exponential growth phase. For maintenance, cells were passaged twice per week and seeded at ratios 1:10. Cell proliferation was determined using the Cell Titer-Blue Assay kit (Promega, Madison, Wis., USA). Cells were seeded at 10,000 cells per well in black flat bottom 96-well plates (Nalge Nunc, Penfield, N.Y., USA) and treated with serial doses of hydroxytyrosol (0-3200 μM) and oleuropein (0-12800 μM) for 24, 48 and 120 hours at 37° C., 5% (v/v) CO2. Following incubation with the test samples, Cell-Titer Blue reagent (20 μl per 100 μL) was added to each well and mixed gently for 5 sec prior to 4 hr incubation at 37° C. in a humidified atmosphere of 5% CO2. Fluorescence intensity (λex=550 nm and λem=615 nm) was determined using a Perkin Elmer Victor3 multilabel microplate counter (PerkinElmer, Waltham, Mass., USA). Data were expressed as % relative cell viability compared to untreated cells after correction of subtracting the media control fluorescence reading.

PBMC = settings: for EC50: Homo sapiens, 24 hr; for cell proliferation of PBMC: 120 hours incubation
Procedure: Human peripheral blood mononuclear cells (PBMCs) were fractionated using the Ficoll Plaque fractionation method from whole blood obtained from the Australian Red Cross Blood Bank (ARCB) under ethic approval (#304/12). Cells were harvested fresh on the day of the experiments and maintained in complete-RPMI-1640 medium supplemented with 10% FBS, 2 mM L-glutamine and 20 μg/mL gentamicin at 37° C., 5% (v/v) CO2. Cell proliferation was determined using the Cell Titer-Blue Assay kit (Promega, Madison, Wis., USA). Cells were seeded at 10,000 cells per well in black flat bottom 96-well plates (Nalge Nunc, Penfield, N.Y., USA) and treated with serial doses of hydroxytyrosol (0-3200 μM) and oleuropein (0-12800 μM) for 24, 48 and 120 hours at 37° C., 5% (v/v) CO2. Following incubation with the test samples, Cell-Titer Blue reagent (20 μl per 100 μL) was added to each well and mixed gently for 5 sec prior to 4 hr incubation at 37° C. in a humidified atmosphere of 5% CO2. Fluorescence intensity (λex=550 nm and λem=615 nm) was determined using a Perkin Elmer Victor3 multilabel microplate counter (PerkinElmer, Waltham, Mass., USA). Data were expressed as % relative cell viability compared to untreated cells after correction of subtracting the media control fluorescence reading.

Compound	EC10 (concentration required to reduce the cell viability of the population to 10%) (A549 cells; A549, 120 hr) [µM]	EC50 (A549 cells; A549, 24 hr) [µM]	EC50 (A549 cells; A549, 48 hr) [µM]	EC50 (A549 cells; A549, 120 hr) [µM]	EC10 (concentration required to reduce the cell viability of the population to 10%) (HT-29 cells; HT-29, 120 hr) [µM]	EC50 (HT-29 cells; HT-29, 24 hr) [µM]	EC50 (HT-29 cells; HT-29, 48 hr) [µM]	EC50 (HT-29 cells; HT-29, 120 hr) [µM]	EC10 (concentration required to reduce the cell viability of the population to 10%) (A431 cells; A431, 120 hr) [µM]	EC50 (A431 cells; A431, 24 hr) [µM]	EC50 (A431 cells; A431, 48 hr) [µM]	EC50 (A431 cells; A431, 120 hr) [µM]	EC50 (MCF7 cells; MCF7, 24 hr) [µM]	EC50 (MCF7 cells; MCF7, 48 hr) [µM]	EC50 (MCF7 cells; MCF7, 120 hr) [µM]	EC10 (concentration required to reduce the cell viability of the population to 10%) (MCF7 cells; MCF7, 120 hr) [µM]	EC10 (concentration required to reduce the cell viability of the population to 10%) (T98G cells; 120 hr) [µM]	EC50 (T98G cells; 24 hr) [µM]	EC50 (T98G cells; 48 hr) [µM]	EC50 (T98G cells; 120 hr) [µM]	also measured
C/C=C1/[C@H](O[C@@H]2O[C@H](CO)[C@@H](O)[C@H](O)[C@H]2O)OC=C(C(=O)OC)[C@H]1CC(=O)OCCc1ccc(O)c(O)c1 [OL, oleuropein]	1540	1080	1100	1220	2950	1580	2500	1850	4450	1750	4400	2900	4750	3000	4100	4700	6220	2770	6100	5500	EC10 (concentration required to reduce the cell viability of the population to 10%) (HL-60 cells; HL-60, 120 hr): 230 µM; EC50 (HL-60 cells; HL-60, 24 hr): 717 µM; EC50 (HL-60 cells; HL-60, 48 hr): 900 µM; EC50 (HL-60 cells; HL-60, 120 hr): 100 µM; EC50 (PBMC): 2710 µM
OCCc1ccc(O)c(O)c1 [HT, 4-(2-hydroxyethyl)-1,2-benzenediol]	320	417	220	160	380	800	230	310	1000	870	920	480	580	900	520	750	1120	1340	1750	700	EC10 (concentration required to reduce the cell viability of the population to 10%) (HL-60 cells; HL-60, 120 hr): 29 µM; EC50 (HL-60 cells; HL-60, 24 hr): 632 µM; EC50 (HL-60 cells; HL-60, 48 hr): 100 µM; EC50 (HL-60 cells; HL-60, 120 hr): 13 µM; cell proliferation of PBMC (PBMC): increases the proliferation; cell proliferation of PBMC (PBMC; listed as hydroxytyrosol): attenuated; EC50 (PBMC): 855 µM
